Source: patent publication US11339130B1 (Blade Therapeutics, Inc., priority 2016, dated 2022)
Read-outs that look alike come from different tables or passages of the source.

Tests used:
[1] = tested on: Calpain activity in SH-SY5Y cells (SBDP-150); assay: SH-SY5Y Spectrin western blot assay (SBDP-150 breakdown product, A23187-induced); assay type: cell-based; settings: SH-SY5Y cells, read-out: SH-SY5Y Spectrin IC50
[2] = tested on: Calpain activity in SH-SY5Y cells; assay: SH-SY5Y + AMC fluorescence assay (Suc-LLVY-AMC substrate); assay type: cell-based; settings: read-out: SH-SY5Y + AMC IC50
Human Calpain 1/NS1 = biological target: T1, Human Calpain 1/NS1 (Homo sapiens, UniProt P07384); assay: Calpain inhibition continuous fluorescence (FRET) assay, Human Calpain 1/NS1; assay type: biochemical; settings: read-out: Human Calpain 1/NS1 IC50
T1 sequence (P07384 1-714): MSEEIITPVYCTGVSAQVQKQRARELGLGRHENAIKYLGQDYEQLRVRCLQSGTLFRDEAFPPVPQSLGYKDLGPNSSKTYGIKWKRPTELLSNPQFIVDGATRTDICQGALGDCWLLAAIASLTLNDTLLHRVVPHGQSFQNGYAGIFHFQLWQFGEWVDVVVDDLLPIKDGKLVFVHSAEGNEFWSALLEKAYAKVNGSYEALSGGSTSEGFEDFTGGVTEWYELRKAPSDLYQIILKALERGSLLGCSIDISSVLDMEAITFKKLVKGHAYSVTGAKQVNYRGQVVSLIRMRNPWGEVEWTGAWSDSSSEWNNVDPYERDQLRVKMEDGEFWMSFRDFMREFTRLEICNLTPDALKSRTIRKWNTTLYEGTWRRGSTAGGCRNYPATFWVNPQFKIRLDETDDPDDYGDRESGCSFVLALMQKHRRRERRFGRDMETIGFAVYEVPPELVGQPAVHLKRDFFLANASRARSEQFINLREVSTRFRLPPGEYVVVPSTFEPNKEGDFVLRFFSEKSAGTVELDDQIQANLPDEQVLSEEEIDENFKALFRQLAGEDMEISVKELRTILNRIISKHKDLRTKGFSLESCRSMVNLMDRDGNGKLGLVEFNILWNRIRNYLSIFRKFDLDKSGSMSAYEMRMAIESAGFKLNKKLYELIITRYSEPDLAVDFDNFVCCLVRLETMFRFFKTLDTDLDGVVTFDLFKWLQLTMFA
T1 sequence (P04632 1-268 partner): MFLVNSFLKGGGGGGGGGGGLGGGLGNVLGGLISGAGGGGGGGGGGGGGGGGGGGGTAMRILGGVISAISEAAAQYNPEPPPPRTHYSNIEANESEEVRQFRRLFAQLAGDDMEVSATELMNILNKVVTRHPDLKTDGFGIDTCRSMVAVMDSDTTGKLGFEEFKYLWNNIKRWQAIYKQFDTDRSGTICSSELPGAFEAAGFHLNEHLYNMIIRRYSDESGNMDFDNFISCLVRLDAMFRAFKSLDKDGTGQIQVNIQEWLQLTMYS
Outline: (§1)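 Calpain activity is measured kinetically with a quenched FRET peptide in 50 mM Tris pH 7.5, 100 mM NaCl, 1 mM DTT, with CaCl2 triggering activation. Rates over 1-5 min are plotted against log inhibitor to obtain IC50 by 4-parameter logistic fitting.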

Human Calpain 9/NS1 = biological target: T2, Human Calpain 9/NS1 (Homo sapiens, UniProt O14815); assay: Calpain inhibition continuous fluorescence (FRET) assay, Human Calpain 9/NS1; assay type: biochemical; settings: read-out: Human Calpain 9/NS1 IC50
T2 sequence (O14815 1-690): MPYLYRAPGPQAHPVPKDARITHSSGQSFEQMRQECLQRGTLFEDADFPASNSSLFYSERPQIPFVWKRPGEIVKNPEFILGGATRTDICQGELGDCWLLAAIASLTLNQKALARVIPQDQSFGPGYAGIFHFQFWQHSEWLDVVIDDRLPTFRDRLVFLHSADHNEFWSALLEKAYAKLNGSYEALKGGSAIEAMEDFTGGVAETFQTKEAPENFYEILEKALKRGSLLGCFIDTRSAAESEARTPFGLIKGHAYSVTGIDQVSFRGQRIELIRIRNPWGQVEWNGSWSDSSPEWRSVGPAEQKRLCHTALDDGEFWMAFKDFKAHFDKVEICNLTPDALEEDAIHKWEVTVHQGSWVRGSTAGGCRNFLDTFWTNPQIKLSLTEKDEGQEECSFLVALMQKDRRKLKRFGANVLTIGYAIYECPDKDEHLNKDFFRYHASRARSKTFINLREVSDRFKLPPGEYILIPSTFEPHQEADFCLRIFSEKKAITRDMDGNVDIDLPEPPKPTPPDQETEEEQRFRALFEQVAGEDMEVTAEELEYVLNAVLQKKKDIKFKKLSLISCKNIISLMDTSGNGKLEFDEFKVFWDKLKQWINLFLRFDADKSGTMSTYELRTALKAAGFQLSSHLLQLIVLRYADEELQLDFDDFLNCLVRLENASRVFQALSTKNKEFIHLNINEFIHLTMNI
T2 sequence (P04632 1-268 partner): T1 sequence (P04632 1-268 partner)
Outline: as §1

Human Calpain 2/NS1 = biological target: T3, Human Calpain 2/NS1 (Homo sapiens, UniProt P17655); assay: Calpain inhibition continuous fluorescence (FRET) assay, Human Calpain 2/NS1; assay type: biochemical; settings: read-out: Human Calpain 2/NS1 IC50
T3 sequence (P17655 1-700): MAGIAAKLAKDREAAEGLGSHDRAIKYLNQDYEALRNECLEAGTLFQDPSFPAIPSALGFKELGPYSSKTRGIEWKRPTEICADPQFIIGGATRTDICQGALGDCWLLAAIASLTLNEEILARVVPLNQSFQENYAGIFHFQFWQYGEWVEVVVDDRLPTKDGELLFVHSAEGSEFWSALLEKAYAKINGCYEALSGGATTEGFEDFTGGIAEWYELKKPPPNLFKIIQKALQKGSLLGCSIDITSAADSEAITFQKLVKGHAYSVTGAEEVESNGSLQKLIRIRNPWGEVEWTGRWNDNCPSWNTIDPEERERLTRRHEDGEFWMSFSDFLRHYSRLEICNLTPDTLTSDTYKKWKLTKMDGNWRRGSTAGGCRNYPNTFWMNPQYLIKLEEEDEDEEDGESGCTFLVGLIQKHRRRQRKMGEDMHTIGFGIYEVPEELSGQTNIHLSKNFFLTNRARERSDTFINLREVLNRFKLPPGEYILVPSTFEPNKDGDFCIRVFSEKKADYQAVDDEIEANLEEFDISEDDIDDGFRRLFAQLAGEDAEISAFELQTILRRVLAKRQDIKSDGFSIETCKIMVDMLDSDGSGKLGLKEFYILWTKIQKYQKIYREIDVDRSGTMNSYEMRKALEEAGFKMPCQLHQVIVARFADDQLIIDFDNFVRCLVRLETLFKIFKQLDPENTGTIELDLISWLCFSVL
T3 sequence (P04632 1-268 partner): T1 sequence (P04632 1-268 partner)
Outline: as §1

[3] = Homo sapiens, A23187-induced SBDP-150, western blot

| IC50 ([1]; Homo sapiens, Column D, A23187-induced SBDP-150) [µM] | IC50 ([2]; Column E) [µM] | IC50 (Human Calpain 1/NS1; Column A) [µM] | IC50 (Human Calpain 9/NS1; Column C) [µM] | IC50 [1, 3] [µM] | IC50 (Human Calpain 2/NS1) [µM] | IC50 (Human Calpain 1/NS1) [µM] | IC50 (Human Calpain 9/NS1) [µM] | IC50 [2] [µM] | IC50 ([1]; A23187-induced SBDP-150, western blot) [µM] | Compound |
| --- | --- | --- | --- | --- | --- | --- | --- | --- | --- | --- |
| 10 to 25 | < 10 | < 3 | < 3 | – | – | – | – | – | – | Cc1nc(-c2cccc(F)c2)c(C(=O)N[C@@H](Cc2ccccc2)C(=O)C(N)=O)o1 [Compound 254, (S)—N-(4-amino-3,4-dioxo-1-phenylbutan-2-yl)-4-(3-fluorophenyl)-2-methyloxazole-5-carboxamide] |
| – | – | – | – | > 25 | 3 to 10 | > 10 | 3 to 10 | – | – | Cc1cccnc1-n1nc(C(=O)NC(Cc2ccccc2)C(=O)C(N)=O)cc1C (centres unmarked) [Compound 346, N-(4-amino-3,4-dioxo-1-phenylbutan-2-yl)-5-methyl-1-(3-methylpyridin-2-yl)-1H-pyrazole-3-carboxamide] |
| – | – | – | – | 10 to 25 | < 3 | < 3 | < 3 | – | – | NC(=O)C(=O)C(Cc1ccccc1)NC(=O)c1nsnc1Cl (centres unmarked) [Compound 364, N-(4-amino-3,4-dioxo-1-phenylbutan-2-yl)-4-chloro-1,2,5-thiadiazole-3-carboxamide] |
| – | – | – | – | 10 to 25 | < 3 | < 3 | < 3 | – | – | O=C(NC1CC1)C(=O)C(Cc1ccccc1)NC(=O)c1nsnc1-c1ccccc1 (centres unmarked) [Compound 462, N-(4-(cyclopropylamino)-3,4-dioxo-1-phenylbutan-2-yl)-4-phenyl-1,2,5-thiadiazole-3-carboxamide] |
| – | – | – | – | > 25 | < 3 | < 3 | < 3 | – | – | NC(=O)C(=O)C(Cc1ccccc1)NC(=O)c1cn(-c2cccc(F)c2)nc1-c1ccccc1 (centres unmarked) [Compound 528, N-(4-amino-3,4-dioxo-1-phenylbutan-2-yl)-1-(3-fluorophenyl)-3-phenyl-1H-pyrazole-4-carb oxamide] |
| – | – | – | – | > 25 | < 3 | < 3 | < 3 | – | – | NC(=O)C(=O)C(Cc1ccccc1)NC(=O)c1cn(C(F)F)nc1-c1cc2ccccc2cn1 (centres unmarked) [Compound 608, N-(4-amino-3,4-dioxo-1-phenylbutan-2-yl)-1-(difluoromethyl)-3-(isoquinolin-3-yl)-1H-pyrazole-4-carboxamide] |
| – | – | – | – | < 10 | < 3 | < 3 | < 3 | – | – | Cc1nc(-c2cccc3c2OCO3)c(C(=O)NC(Cc2ccccc2)C(=O)C(N)=O)o1 (centres unmarked) [Compound 609, N-(4-amino-3,4-dioxo-1-phenylbutan-2-yl)-4-(benzo[d][1,3]dioxol-4-yl)-2-methyloxazole-5-c arboxamide] |

More lines, now with the values behind:

| Compound | IC50 ([1]; Homo sapiens, Column D, A23187-induced SBDP-150) [µM] | IC50 ([2]; Column E) [µM] | IC50 (Human Calpain 1/NS1; Column A) [µM] | IC50 (Human Calpain 9/NS1; Column C) [µM] | IC50 [1, 3] [µM] | IC50 (Human Calpain 2/NS1) [µM] | IC50 (Human Calpain 1/NS1) [µM] | IC50 (Human Calpain 9/NS1) [µM] | IC50 [2] [µM] | IC50 ([1]; A23187-induced SBDP-150, western blot) [µM] |
| --- | --- | --- | --- | --- | --- | --- | --- | --- | --- | --- |
| Cn1cc(C(=O)NC(Cc2ccccc2)C(=O)C(N)=O)c(-c2ccc(C#N)nc2)n1 (centres unmarked) [Compound 481, N-(4-amino-3,4-dioxo-1-phenylbutan-2-yl)-3-(6-cyanopyridin-3-yl)-1-methyl-1H-pyrazole-4-carboxamide] | – | – | – | – | > 25 | < 3 | < 3 | < 3 | – | – |
| Cn1cc(C(=O)NC(Cc2ccccc2)C(=O)C(N)=O)c(Cc2ccccc2)n1 (centres unmarked) [Compound 483, N-(4-amino-3,4-dioxo-1-phenylbutan-2-yl)-3-benzyl-1-methyl-1H-pyrazole-4-carboxamide] | – | – | – | – | > 25 | 3 to 10 | > 10 | < 3 | – | – |
| Cn1cc(C(=O)NC(Cc2ccccc2)C(=O)C(N)=O)c(-c2cccc(C(F)(F)F)c2F)n1 (centres unmarked) [Compound 516, N-(4-amino-3,4-dioxo-1-phenylbutan-2-yl)-3-(2-fluoro-3-(trifluoromethyl)phenyl)-1-methyl-1H-pyrazole-4-carboxamide] | – | – | – | – | > 25 | < 3 | < 3 | < 3 | – | – |
| C#CCOCc1ccc(-c2nn(C)cc2C(=O)N[C@@H](Cc2ccccc2)C(=O)CF)c(F)c1 [Compound 521, (S)—N-(4-fluoro-3-oxo-1-phenylbutan-2-yl)-3-(2-fluoro-4-((prop-2-yn-1-yloxy)methyl)phenyl)-1-methyl-1H-pyrazole-4-carboxamide] | – | – | – | – | 10 to 25 | < 3 | < 3 | 3 to 10 | – | – |
| NC(=O)C(=O)C(Cc1ccccc1)NC(=O)c1cn(C(F)F)nc1-c1cc(F)cc(F)c1 (centres unmarked) [Compound 523, N-(4-amino-3,4-dioxo-1-phenylbutan-2-yl)-1-(difluoromethyl)-3-(3,5-difluorophenyl)-1H-pyrazole-4-carboxamide] | – | – | – | – | 10 to 25 | – | < 3 | – | < 10 | – |
| NC(=O)C(=O)C(Cc1ccccc1)NC(=O)c1nsnc1-c1ccc2c(c1)OC(F)(F)O2 (centres unmarked) [Compound 599, N-(4-amino-3,4-dioxo-1-phenylbutan-2-yl)-4-(2,2-difluorobenzo[d][1,3]dioxol-5-yl)-1,2,5-thiadiazole-3-carboxamide] | – | – | – | – | > 25 | – | – | < 3 | > 25 | – |
| NC(=O)C(=O)C(Cc1ccccc1)NC(=O)c1cn(C(F)F)nc1-c1cnc2ccccc2c1 (centres unmarked) [Compound 610, N-(4-amino-3,4-dioxo-1-phenylbutan-2-yl)-1-(difluoromethyl)-3-(quinolin-3-yl)-1H-pyrazole-4-carboxamide] | – | – | – | – | < 10 | < 3 | < 3 | < 3 | – | – |
| Cn1cc(C(=O)NC(Cc2ccccc2)C(=O)C(N)=O)c(-c2ccnc3ccccc23)n1 (centres unmarked) [Compound 611, N-(4-amino-3,4-dioxo-1-phenylbutan-2-yl)-1-methyl-3-(quinolin-4-yl)-1H-pyrazole-4-carboxamide] | – | – | – | – | 10 to 25 | < 3 | < 3 | < 3 | – | – |
| (S)—N-(4-(((1H-benzo[d]imidazol-5-yl)methyl)amino)-3,4-dioxo-1-phenyl butan-2-yl)-3-methyl-5-phenylisoxazole-4-carboxamide [Compound 493] | – | – | – | – | – | < 3 | < 3 | 3 to 10 | – | > 25 |
